Laboratory results taken from ChEMBL document CHEMBL5678812, “Inhibitors of p21-activated kinases (PAKs)” (J Med Chem, 2015).
In brackets after ≈: the same amount, converted by molar mass. Each block holds one compound with its values, some of them ahead of it.

Key:
[1] = Half life in dog at 10 mg/kg, po; format: ADME, organism-based, Canis lupus familiaris; details: in vivo
[2] = Apparent permeability across apical to basolateral side in human Caco-2 cells; format: ADME, cell-based
[3] = molecular target: Serine/threonine-protein kinase PAK 4 (Mus musculus, UniProt Q8BTW9); test: Inhibition of PAK4 in mouse NIH3T3 cells assessed as reduction in phosphorylated GEF-H1 accumulation incubated for 30 mins by immunoblotting analysis; format: cell-based
[4] = Clearance in dog at 10 mg/kg, po; format: ADME, organism-based, Canis lupus familiaris; details: in vivo
M24met [5] = test: Antitumor activity against human M24met cells xenografted in mouse assessed as tumor growth inhibition at 15 mg/kg, po; format: functional; details: read-out: TGI
[6] = Clearance in rat at 10 mg/kg, po; format: ADME, organism-based; details: in vivo
HCT-116 [7] = test: Antitumor activity against human HCT-116 cells xenografted in mouse assessed as tumor growth inhibition at 20 mg/kg, po; format: functional; details: read-out: TGI
[8] = Oral bioavailability in dog at 10 mg/kg; format: ADME, organism-based, Canis lupus familiaris; details: in vivo
HCT-116 [9] = test: Antitumor activity against human HCT-116 cells xenografted in mouse assessed as tumor growth inhibition at 12 mg/kg, po; format: functional; details: read-out: TGI
[10] = molecular target: T1, Serine/threonine-protein kinase PAK 4 (Homo sapiens, UniProt O96013); test: Inhibition of PAK4 (unknown origin) using 5-FAM-AhxKKRNRRLSVA-amide as substrate incubated for 90 mins by caliper off-chip mobility shift assay
Target sequence in this assay (O96013 whole entry): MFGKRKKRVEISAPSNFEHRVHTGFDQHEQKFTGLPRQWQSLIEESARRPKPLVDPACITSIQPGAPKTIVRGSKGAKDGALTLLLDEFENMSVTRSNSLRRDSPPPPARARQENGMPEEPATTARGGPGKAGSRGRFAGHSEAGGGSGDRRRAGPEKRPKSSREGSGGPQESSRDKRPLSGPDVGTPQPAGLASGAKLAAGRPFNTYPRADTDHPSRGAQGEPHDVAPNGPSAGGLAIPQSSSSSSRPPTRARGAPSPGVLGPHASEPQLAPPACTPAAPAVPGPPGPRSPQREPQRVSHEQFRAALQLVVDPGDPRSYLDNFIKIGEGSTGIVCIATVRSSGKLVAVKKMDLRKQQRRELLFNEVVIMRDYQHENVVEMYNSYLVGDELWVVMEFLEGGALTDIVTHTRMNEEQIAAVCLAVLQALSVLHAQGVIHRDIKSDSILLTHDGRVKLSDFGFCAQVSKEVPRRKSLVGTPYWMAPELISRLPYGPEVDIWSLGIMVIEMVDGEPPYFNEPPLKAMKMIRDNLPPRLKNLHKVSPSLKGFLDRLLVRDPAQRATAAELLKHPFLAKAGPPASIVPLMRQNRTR

[11] = molecular target: T1, Serine/threonine-protein kinase PAK 4; test: Inhibition of PAK4 (unknown origin)
Target sequence in this assay (O96013 whole entry): as above

[12] = molecular target: Serine/threonine-protein kinase PAK 2 (Homo sapiens, UniProt Q13177); test: Binding affinity to PAK2 (unknown origin) assessed as dissociation constant
[13] = Kinetic solubility of compound; format: physicochemical; details: read-out: Kinetic_solubility
[14] = molecular target: T1, Serine/threonine-protein kinase PAK 4; test: Binding affinity to PAK4 (unknown origin) assessed as dissociation constant
Target sequence in this assay (O96013 whole entry): as above

[15] = molecular target: Serine/threonine-protein kinase PAK 3 (Homo sapiens, UniProt O75914); test: Binding affinity to PAK3 (unknown origin) assessed as dissociation constant
[16] = molecular target: Serine/threonine-protein kinase PAK 5 (Homo sapiens, UniProt Q9P286); test: Binding affinity to PAK7 (unknown origin) assessed as dissociation constant
A549 = test: Antitumor activity against human A549 cells xenografted in mouse assessed as tumor growth inhibition at 7.5 to 30 mg/kg, po measured for 9 to 18 days; format: functional; details: dose 7.5-30 mg/kg, time 9-18 day
HCT-116 [17] = test: Antitumor activity against human HCT-116 cells xenografted in mouse assessed as tumor growth inhibition at 7.5 to 30 mg/kg, po measured for 9 to 18 days; format: functional; details: dose 7.5-30 mg/kg, time 9-18 day
[18] = molecular target: Cyclin-dependent kinase 7 (Homo sapiens, UniProt P50613); test: Inhibition of CDK7 (unknown origin)
COLO 205 = test: Antitumor activity against human COLO 205 cells xenografted in mouse assessed as tumor growth inhibition at 7.5 to 30 mg/kg, po measured for 9 to 18 days; format: functional; details: dose 7.5-30 mg/kg, time 9-18 day
[19] = molecular target: Serine/threonine-protein kinase PAK 6 (Homo sapiens, UniProt Q9NQU5); test: Inhibition of recombinant PAK6 (unknown origin)
MDA-MB-231 = test: Antitumor activity against human MDA-MB-231 cells xenografted in mouse assessed as tumor growth inhibition at 7.5 to 30 mg/kg, po measured for 9 to 18 days; format: functional; details: dose 7.5-30 mg/kg, time 9-18 day
[20] = Inhibition of p53/pin 1 (unknown origin) interaction; set-up: species or system Homo sapiens
[21] = molecular target: Tumour suppressor p53/oncoprotein Mdm2 (Homo sapiens, UniProt P04637+Q00987); test: Inhibition of MDM2/p53 (unknown origin) interaction; format: protein assay
M24met [22] = test: Antitumor activity against human M24met cells xenografted in mouse assessed as tumor growth inhibition at 7.5 to 30 mg/kg, po measured for 9 to 18 days; format: functional; details: dose 7.5-30 mg/kg, time 9-18 day
[23] = molecular target: T1, Serine/threonine-protein kinase PAK 4; test: Inhibition of PAK4 (unknown origin) assessed as inhibition constant
Target sequence in this assay (O96013 whole entry): as above

[24] = molecular target: T1, Serine/threonine-protein kinase PAK 4; test: Inhibition of PAK4 (unknown origin) at 10 uM relative to control
Target sequence in this assay (O96013 whole entry, looked up): as the sequence (O96013 whole entry) above

[25] = molecular target: T1, Serine/threonine-protein kinase PAK 4; test: Inhibition of PAK4 (unknown origin) in presence of ATP by Z-LYTE enzymatic kinase assay
Target sequence in this assay (O96013 whole entry): as above

HCT-116 [26] = test: Antitumor activity against human HCT-116 cells xenografted in mouse assessed as downregulation of GEF-H1 phosphorylation at 25 mg/kg, po measured after 18 hrs; format: functional

Chain of Serine/threonine-protein kinase PAK 4 (Mus musculus, UniProt Q8BTW9) (Q8BTW9 whole entry): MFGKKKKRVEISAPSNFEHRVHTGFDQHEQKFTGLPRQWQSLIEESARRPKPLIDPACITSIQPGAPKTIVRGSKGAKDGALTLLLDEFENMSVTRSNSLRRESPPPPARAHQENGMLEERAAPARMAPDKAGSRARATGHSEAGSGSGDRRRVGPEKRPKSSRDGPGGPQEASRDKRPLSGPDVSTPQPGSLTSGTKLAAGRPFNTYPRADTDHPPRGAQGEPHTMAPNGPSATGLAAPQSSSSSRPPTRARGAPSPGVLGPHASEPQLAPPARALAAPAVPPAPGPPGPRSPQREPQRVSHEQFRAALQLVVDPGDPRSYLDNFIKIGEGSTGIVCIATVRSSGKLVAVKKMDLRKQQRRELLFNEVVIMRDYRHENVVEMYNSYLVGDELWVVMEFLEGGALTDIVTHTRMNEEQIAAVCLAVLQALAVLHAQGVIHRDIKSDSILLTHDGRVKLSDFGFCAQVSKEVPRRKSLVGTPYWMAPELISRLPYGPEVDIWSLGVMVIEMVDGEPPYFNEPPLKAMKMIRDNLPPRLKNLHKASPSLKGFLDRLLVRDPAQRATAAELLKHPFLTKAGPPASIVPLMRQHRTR
Chain of Serine/threonine-protein kinase PAK 2 (Q13177 whole entry): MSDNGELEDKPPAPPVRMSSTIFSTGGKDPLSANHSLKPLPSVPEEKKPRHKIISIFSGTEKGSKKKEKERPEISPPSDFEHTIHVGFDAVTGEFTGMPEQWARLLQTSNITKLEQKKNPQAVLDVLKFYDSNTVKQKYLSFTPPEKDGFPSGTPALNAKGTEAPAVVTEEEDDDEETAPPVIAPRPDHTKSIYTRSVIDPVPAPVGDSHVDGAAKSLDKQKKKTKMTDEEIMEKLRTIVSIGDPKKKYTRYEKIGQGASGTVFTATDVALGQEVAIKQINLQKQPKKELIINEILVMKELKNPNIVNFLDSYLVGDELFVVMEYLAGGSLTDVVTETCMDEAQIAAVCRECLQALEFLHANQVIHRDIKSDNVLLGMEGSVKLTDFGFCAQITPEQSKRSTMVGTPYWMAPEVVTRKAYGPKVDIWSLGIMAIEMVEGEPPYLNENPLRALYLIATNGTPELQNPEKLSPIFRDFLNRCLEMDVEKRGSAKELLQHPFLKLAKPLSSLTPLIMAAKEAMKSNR
Chain of Serine/threonine-protein kinase PAK 5 (Q9P286 whole entry): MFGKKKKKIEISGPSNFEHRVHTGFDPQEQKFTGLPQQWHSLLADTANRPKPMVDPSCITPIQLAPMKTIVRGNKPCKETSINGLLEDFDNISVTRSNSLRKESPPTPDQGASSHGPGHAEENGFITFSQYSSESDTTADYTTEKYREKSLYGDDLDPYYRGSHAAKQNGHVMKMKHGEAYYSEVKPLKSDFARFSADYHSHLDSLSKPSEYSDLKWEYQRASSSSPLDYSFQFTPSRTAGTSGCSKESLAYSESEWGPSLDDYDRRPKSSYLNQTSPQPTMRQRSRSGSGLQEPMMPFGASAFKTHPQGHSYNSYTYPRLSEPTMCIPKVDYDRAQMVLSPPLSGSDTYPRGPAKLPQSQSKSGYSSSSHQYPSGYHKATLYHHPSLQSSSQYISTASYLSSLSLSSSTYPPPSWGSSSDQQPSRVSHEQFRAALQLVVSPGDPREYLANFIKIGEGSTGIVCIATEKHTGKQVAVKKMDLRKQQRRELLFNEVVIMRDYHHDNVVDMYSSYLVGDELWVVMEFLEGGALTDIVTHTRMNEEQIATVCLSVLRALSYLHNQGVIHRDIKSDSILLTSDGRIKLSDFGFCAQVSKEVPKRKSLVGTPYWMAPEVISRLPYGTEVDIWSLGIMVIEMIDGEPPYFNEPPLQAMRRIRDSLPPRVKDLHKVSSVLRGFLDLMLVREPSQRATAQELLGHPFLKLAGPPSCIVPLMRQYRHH
Chain of Cyclin-dependent kinase 7 (P50613 whole entry): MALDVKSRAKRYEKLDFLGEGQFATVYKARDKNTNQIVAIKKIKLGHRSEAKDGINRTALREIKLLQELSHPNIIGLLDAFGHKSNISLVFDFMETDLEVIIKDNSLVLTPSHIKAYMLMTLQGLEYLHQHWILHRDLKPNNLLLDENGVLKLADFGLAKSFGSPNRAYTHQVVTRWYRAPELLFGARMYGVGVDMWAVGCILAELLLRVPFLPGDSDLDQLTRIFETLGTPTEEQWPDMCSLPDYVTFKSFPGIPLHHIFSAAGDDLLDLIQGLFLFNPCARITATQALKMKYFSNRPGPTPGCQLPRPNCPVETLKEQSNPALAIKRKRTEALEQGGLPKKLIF
Chain of Serine/threonine-protein kinase PAK 6 (Q9NQU5 whole entry): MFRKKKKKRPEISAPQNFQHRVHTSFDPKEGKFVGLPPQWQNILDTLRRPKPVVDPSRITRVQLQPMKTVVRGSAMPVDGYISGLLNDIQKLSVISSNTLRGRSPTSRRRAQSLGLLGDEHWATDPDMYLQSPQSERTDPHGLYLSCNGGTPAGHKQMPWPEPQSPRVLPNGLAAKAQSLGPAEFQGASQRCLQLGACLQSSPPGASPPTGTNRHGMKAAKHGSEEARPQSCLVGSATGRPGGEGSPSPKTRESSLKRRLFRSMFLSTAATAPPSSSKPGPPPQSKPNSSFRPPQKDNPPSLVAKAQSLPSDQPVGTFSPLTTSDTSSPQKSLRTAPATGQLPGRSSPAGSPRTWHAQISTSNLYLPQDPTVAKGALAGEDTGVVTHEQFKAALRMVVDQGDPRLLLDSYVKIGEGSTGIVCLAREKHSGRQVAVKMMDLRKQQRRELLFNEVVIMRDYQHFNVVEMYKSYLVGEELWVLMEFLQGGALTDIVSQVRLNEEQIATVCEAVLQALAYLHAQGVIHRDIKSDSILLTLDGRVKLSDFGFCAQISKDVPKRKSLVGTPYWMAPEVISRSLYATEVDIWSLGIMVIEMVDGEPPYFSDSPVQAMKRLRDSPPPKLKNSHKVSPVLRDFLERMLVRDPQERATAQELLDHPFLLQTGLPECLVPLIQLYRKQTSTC
Chain of Serine/threonine-protein kinase PAK 3 (O75914 whole entry): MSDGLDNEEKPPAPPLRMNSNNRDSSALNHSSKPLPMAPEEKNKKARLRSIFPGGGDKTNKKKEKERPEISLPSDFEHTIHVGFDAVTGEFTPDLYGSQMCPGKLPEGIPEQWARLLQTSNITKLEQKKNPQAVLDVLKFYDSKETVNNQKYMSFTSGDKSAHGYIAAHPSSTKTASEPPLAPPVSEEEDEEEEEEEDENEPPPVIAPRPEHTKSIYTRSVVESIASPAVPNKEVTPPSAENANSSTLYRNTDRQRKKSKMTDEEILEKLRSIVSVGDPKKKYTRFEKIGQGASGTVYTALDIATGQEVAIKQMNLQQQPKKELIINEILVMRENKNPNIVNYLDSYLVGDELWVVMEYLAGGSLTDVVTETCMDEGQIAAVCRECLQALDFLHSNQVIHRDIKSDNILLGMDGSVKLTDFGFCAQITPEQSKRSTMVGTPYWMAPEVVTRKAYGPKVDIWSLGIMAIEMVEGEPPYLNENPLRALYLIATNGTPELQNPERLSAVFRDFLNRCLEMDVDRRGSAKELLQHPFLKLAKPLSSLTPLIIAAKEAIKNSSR

half-life [1]: 2.2 h
Papp A→B [2]: 1.7 ×10⁻⁶ cm/s
EC50 [3]: 4 nM
CL/F [4]: 12 mL/min/kg
CL/F [6]: 52 mL/min/kg
bioavailability [8]: 20%
SMILES: CN(C)C[C@@H](OC(=O)N1Cc2c(NC(=O)C(C)(C)C)n[nH]c2C1(C)C)c1ccccc1
inhibition in vivo at 15 mg/kg (M24met [5]): 68%
inhibition in vivo at 20 mg/kg (HCT-116 [7]): 52%
inhibition in vivo at 12 mg/kg (HCT-116 [9]): 37%

IC50 [10]: 550 nM
SMILES: O=C(c1ccccc1Cl)c1n[nH]c2ncc(-c3cnn(C4CCNCC4)c3)cc12

IC50 [11]: 960 nM
SMILES: CCn1c(=O)c(-c2ccc(-c3noc(C)n3)cc2Cl)cc2cnc(Nc3ccc(C4CCN(C)CC4)cc3)nc21

SMILES: CC(C)NC(=O)N1CCC(NC2=Nc3cc(F)ccc3N(CC(F)F)c3ccc(Cl)cc32)C1 (stereo not given)
Kd [12]: 400 nM
solubility kinetic [13]: 55 µM (≈ 26.4 µg/mL)

Kd [14]: > 40000 nM
Kd [12]: 1100 nM
Kd [15]: > 40000 nM
Kd [16]: > 40000 nM
SMILES: CCN1c2ccc(F)cc2N=C(NC2CCN(C(=O)NC(C)(C)C)C2)c2cc(Cl)ccc21 (stereo not given)

IC50 [18]: 7 nM
IC50 [19]: ~20 nM
IC50 [20]: 5.7 nM
IC50 [21]: 5.6 nM
SMILES: Cc1nc(Nc2n[nH]c3c2CN(C(=O)N[C@H](CN(C)C)c2ccccc2)C3(C)C)c2sccc2n1 [PF-03758309]
TGI (A549): >70%
TGI (HCT-116 [17]): >70%
TGI (COLO 205): >70%
TGI (MDA-MB-231): >70%
TGI (M24met [22]): >70%

Ki [23]: 4 nM
SMILES: N[C@@H]1[C@H]2CN(c3nc(Nc4cc(C5CC5)[nH]n4)c4sccc4n3)C[C@@H]12

EC50 [3]: 13 nM
SMILES: CN(C)C[C@@H](NC(=O)c1ccc2[nH]nc(-c3nc4ccccc4[nH]3)c2c1)c1ccccc1

EC50 [3]: 810 nM
SMILES: CN1CCN(C(=O)N2Cc3c(NC(=O)c4cccc(Oc5ccccc5)c4)n[nH]c3C2(C)C)[C@@H](Cc2ccccc2)C1

SMILES: CCn1cnc2c(Nc3cccc(Cl)c3)nc(NC3CCCCC3N)nc21 (stereo not given)
inhibition [24]: 44%

IC50 [25]: > 10000 nM
SMILES: CCn1c(=O)c(-c2ccc(-c3cncs3)cc2Cl)cc2cnc(Nc3ccc(N4CCN(C)CC4)cc3)nc21

IC50 [11]: 790 nM
SMILES: COc1nc(NCCc2c[nH]c3ccccc23)nc(Nc2ccc3[nH]ncc3c2)n1

Papp A→B [2]: 0.1 ×10⁻⁶ cm/s
EC50 [3]: 32 nM
SMILES: CN(C)C[C@@H](NC(=O)N1Cc2c(NC(=O)c3ccccc3)n[nH]c2C1(C)C)c1ccccc1
Activity (HCT-116 [26]): ~61%
